According to PMC7496872 (Chemmedchem, 2020):

How the values were obtained:
TLR2/6 = target: T1, TLR2/6 (Homo sapiens, UniProt O60603); assay: TLR2/6 (Pam2CSK4)-induced NF-κB/AP-1 SEAP reporter in HEK-Blue hTLR2 cells; type: cell-based; details: for TLR2-mediated NF-κB activation in primary screen, TLR2/6 (in words) / IC50: Pam2CSK4 1 ng/mL; for TLR2-mediated NF-κB activation in primary screen, TLR2/6 (in words): Figure 3A; for IC50: HEK-Blue hTLR2 cells, n=3, 95 % confidence interval in brackets; for Pam2CSK4-induced TLR2/6 response (remaining): compound at 50 μM, 1 h pre-incubation, Pam2CSK4 1 ng/mL 24 h
T1 construct: host or cells: HEK-Blue hTLR2 cells
T1 sequence (O60603 21-784): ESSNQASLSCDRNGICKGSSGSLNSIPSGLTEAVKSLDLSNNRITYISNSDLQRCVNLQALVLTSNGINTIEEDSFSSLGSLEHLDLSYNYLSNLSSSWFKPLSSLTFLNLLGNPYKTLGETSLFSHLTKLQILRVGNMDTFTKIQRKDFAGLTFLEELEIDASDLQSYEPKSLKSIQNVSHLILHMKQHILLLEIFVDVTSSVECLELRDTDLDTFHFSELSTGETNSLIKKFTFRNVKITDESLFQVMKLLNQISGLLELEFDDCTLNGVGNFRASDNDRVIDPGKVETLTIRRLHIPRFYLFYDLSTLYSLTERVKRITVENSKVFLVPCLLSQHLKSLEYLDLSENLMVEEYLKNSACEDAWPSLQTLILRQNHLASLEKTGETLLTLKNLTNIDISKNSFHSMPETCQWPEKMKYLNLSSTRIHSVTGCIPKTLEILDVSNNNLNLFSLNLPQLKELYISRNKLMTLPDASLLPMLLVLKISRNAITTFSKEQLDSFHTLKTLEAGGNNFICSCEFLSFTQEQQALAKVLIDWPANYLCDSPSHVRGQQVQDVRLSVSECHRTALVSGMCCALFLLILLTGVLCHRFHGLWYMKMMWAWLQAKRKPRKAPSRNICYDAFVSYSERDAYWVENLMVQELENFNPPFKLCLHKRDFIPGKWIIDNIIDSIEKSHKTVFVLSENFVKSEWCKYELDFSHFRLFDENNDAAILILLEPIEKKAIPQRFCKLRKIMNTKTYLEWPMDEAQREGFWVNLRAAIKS
Method: (§1) Figure 3 Inhibition of TLR2‐dependent NF‐κB activation and IL‐8 secretion. A) HEK‐Blue hTLR2 cells were pre‐incubated with CU‐CPT22 or compounds 1–6 and 9–11 for 1 h and then stimulated additionally with TLR2/1 agonist Pam3CSK4 (10 ng/mL) or TLR2/6 agonist Pam2CSK4 (1 ng/mL) for 24 h. B) HEK‐Blue hTLR2 cells were pre‐incubated with increasing concentrations of 4, 6, 9, 10 and then stimulated additionally with Pam3CSK4 or Pam2CSK4 for 24 h. Supernatants were tested for TLR2‐mediated NF‐κB/AP‐1 activity by quantification of SEAP release (OD640). C) THP‐1 macrophages were incubated with CU‐CPT22 (25 μM) or compound 6 for 1 h and afterwards stimulated with Pam3CSK4 (10 ng/mL), Pam2CSK4 (1ng/mL), LPS (10 ng/mL), flagellin (1 μg/mL), CL075 (8 μM) or ODN2006 (5 μM) for 24 h. Supernatants were analyzed for IL‐8 secretion by ELISA. Mean+SD or ±SD (n=3).
(§2) Cell culture: Human embryonic kidney (HEK)‐Blue hTLR2 cells (InvivoGen, Touluse, France) were used from passage 5 to 20. Stimulation of the cells with TLR2 agonists leads to production and secretion of NF‐κB‐inducible embryonic alkaline phosphatase (SEAP). The enzyme transforms the substrate QUANTI‐Blue (InvivoGen) into a blue dye that was detected by optical density (OD) at 640 nm as previously described.11a, 12 THP‐1 cells (DSMZ, Braunschweig, Germany) from passage 10 to 15 were cultured as previously reported.13 For the generation of THP‐1 macrophages, THP‐1 monocytes were first incubated with 25 ng/mL Phorbol 12‐myristate 13‐acetate (PMA, Sigma‐Aldrich) for 48 h and afterwards rested for 24 h. The cell lines were cultured at 37 °C in a humidified atmosphere of 5 % CO2 and 95 % air and were regularly tested negative for mycoplasma contamination (VenorGeM Classic Mycoplasma PCR detection kit, Minerva Biolabs, Berlin, Germany).
(§3) Cell stimulation: HEK‐Blue hTLR2 cells (4×10^4 cells/well) and THP‐1 macrophages (2×10^5 cells/well) were cultured in 96‐well plates and 24‐well plates (TPP, Trasadingen, Switzerland). After cells were washed with phosphate‐buffered saline (PBS, Sigma‐Aldrich), cell stimulation was done in OptiMEM (ThermoFisher Scientific). The tested compounds and CU‐CPT22 (50 mM) were dissolved in DMSO. Final DMSO concentrations in cell culture were below 0.2 % (v/v). […] For co‐stimulation of TLR2 agonists and tested modulators, cells were preincubated with the compounds or CU‐CPT22 for 1 h and afterwards stimulated with the agonists.
(§4) Statistical analysis: Data of the bar charts are shown as mean+SD. Potency (IC50) data are presented as mean with the confidence interval (95 %). Statistical analysis was done by using GraphPad Prism 6.0 (GraphPad software, San Diego, USA). Nonlinear regression was used to plot and analyze concentration‐response curves and to obtain IC50 values.

HEK-Blue hTLR2 cells = assay: Cell viability by MTT assay; type: cell-based, human; details: 24 h
Method: Cell viability: Cell viability was assessed by the MTT assay in HEK Blue hTLR2 cells as previously described.14 10 % (v/v) DMSO (Carl Roth) served as control and the viability of untreated cells was defined as 100 %.
(§5) 1.1 Supplementary Figure 1: Agonistic activity and cell viability […]
(§6) up to 50 µM. (A) HEK-Blue hTLR2 cells were stimulated with Pam3CSK4 (10 ng/ml) or the compounds 1-9 for 24 h. SEAP production was detected by QUANTI-Blue as OD at 640 nm. (B) HEK-Blue hTLR2 cells were stimulated with DMSO (10% v/v) or the compounds for 24 h. Cell viability was determined by MTT assay and normalized to unstimulated cells (dashed line). Mean +SD (n=3).
(1 picture or pasted object on this page, not shown here)

TLR2/1 = target: T2, TLR2/1 (Homo sapiens, UniProt O60603); assay: TLR2/1 (Pam3CSK4)-induced NF-κB/AP-1 SEAP reporter in HEK-Blue hTLR2 cells; type: cell-based; details: for TLR2-mediated NF-κB activation in primary screen, TLR2/1 (in words) / IC50: Pam3CSK4 10 ng/mL; for TLR2-mediated NF-κB activation in primary screen, TLR2/1 (in words): Figure 3A; for IC50: HEK-Blue hTLR2 cells, n=3, 95 % confidence interval in brackets; for Pam3CSK4-induced TLR2/1 response (remaining): compound at 50 μM, 1 h pre-incubation, Pam3CSK4 10 ng/mL 24 h
T2 construct: host or cells: HEK-Blue hTLR2 cells
T2 sequence (O60603 21-784): as above
Method: as §1, §2, §3, §4

TLR2 = target: T3, TLR2 (Homo sapiens, UniProt O60603); assay: Agonistic TLR2 activity, SEAP production in HEK-Blue hTLR2 cells; type: cell-based; details: compounds alone for 24 h, SEAP OD 640 nm
T3 construct: host or cells: HEK-Blue hTLR2 cells
T3 sequence (O60603 21-784): as above
Method: as §2, §5
as §6, with “(n=3). […]” for “(n=3).”

[1] = Chemical stability toward oxidation; type: physicochemical; details: aerobic conditions; 7 and 8 on debenzylation of the protected intermediates
Excerpt: Aromatic ketone 5, in which the amide linker between two benzene rings is replaced by a ketomethylene unit, was obtained via the direct C‐acylation of resorcinol (1,3‐diphenol) with 3,4‐dimethoxy‐phenyl acetic acid using boron trifluoride diethyl etherate as the activating Lewis acid in 19 % yield. Compounds 1–6 were isolated with >95 % purity by column chromatography. Synthesis of the trihydroxy‐derivatives, ethyl 3‐(2,3,4‐trihydroxy‐benzamido)benzoate 7 and ethyl 3‐(3,4,5‐trihydroxy‐benzamido)benzoate 8 was attempted following the same strategy as in Scheme 2. […] 7 and 8 therefore could not be isolated and tested biologically.

other TLR subtypes = assay: IL-8 secretion (ELISA) in THP-1 macrophages stimulated with agonists of other TLRs; type: cell-based, human; details: LPS, flagellin, CL075 or ODN2006 for 24 h
Method: as §1, with “C) THP‐1 macrophages were incubated with CU‐CPT22 (25 μM) or compound 6 for 1 h and afterwards stimulated with Pam3CSK4 (10 ng/mL), Pam2CSK4 (1ng/mL), LPS (10 ng/mL), flagellin (1 μg/mL), CL075 (8 μM) or ODN2006 (5 μM) for 24 h.” left out, “Mean+SD or ±SD (n=3).” left out
Cell culture: Human embryonic kidney (HEK)‐Blue hTLR2 cells (InvivoGen, Touluse, France) were used from passage 5 to 20. […] The enzyme transforms the substrate QUANTI‐Blue (InvivoGen) into a blue dye that was detected by optical density (OD) at 640 nm as previously described.11a, 12 THP‐1 cells (DSMZ, Braunschweig, Germany) from passage 10 to 15 were cultured as previously reported.13 For the generation of THP‐1 macrophages, THP‐1 monocytes were first incubated with 25 ng/mL Phorbol 12‐myristate 13‐acetate (PMA, Sigma‐Aldrich) for 48 h and afterwards rested for 24 h. […]
ELISA: Commercially available ELISA kits were used for detecting human IL‐8 levels in cell culture supernatants (ELISA‐Ready Set Go, Invitrogen by Thermo Fisher Scientific).

| SMILES | TLR2-mediated NF-κB activation in primary screen, TLR2/6 (in words) (TLR2/6) | TLR2-mediated NF-κB activation in primary screen, TLR2/1 (in words) (TLR2/1) | IC50 (TLR2/6) [µM] | chemical stability / sensitivity to oxidation [1] | IC50 (TLR2/1) [µM] | Pam3CSK4-induced TLR2/1 response (remaining) (TLR2/1) | also measured |
| --- | --- | --- | --- | --- | --- | --- | --- |
| CCCc1cc(C(=O)Cc2ccc(C(=O)OCC)o2)c(O)cc1O [Compound 11] | abrogated the TLR2 response of both heterodimers almost completely | abrogated the TLR2 response of both heterodimers almost completely |  |  |  |  | cytotoxic effects / cell viability (in words) (HEK-Blue hTLR2 cells): cytotoxic; lowest concentration reducing cell viability (HEK-Blue hTLR2 cells): 50 µM |
| CCOC(=O)c1cccc(NC(=O)c2cc(O)cc(O)c2)c1 [Compound 6, Ethyl 3‐(3,5‐dihydroxy‐benzamido)benzoate] | abrogated the TLR2 response of both heterodimers almost completely | abrogated the TLR2 response of both heterodimers almost completely | 13.6 | chemically stable | 15.4 | less than 40% | agonistic TLR2 activity (TLR2): no agonistic activity; influence on other TLR subtypes (IL-8 secretion) (other TLR subtypes): no influence on other TLR subtypes; cytotoxic effects / cell viability (in words) (HEK-Blue hTLR2 cells): nontoxic; lowest concentration reducing cell viability (HEK-Blue hTLR2 cells): > 50 µM |
| CCOC(=O)c1ccc(CC(=O)c2c(C)cc(O)cc2O)o1 [Compound 10] |  |  | 40.7 |  | 44 | less than 40% | Pam2CSK4-induced TLR2/6 response (remaining) (TLR2/6): less than 50% |
| CCOC(=O)c1cccc(NC(=O)Cc2ccc(OC)c(OC)c2)c1 [Compound 4, Ethyl 3‐(2‐(3,4‐dimethoxyphenyl)acetamido)benzoate] |  |  | 61.9 |  | 44.9 | less than 40% |  |
| COC(=O)c1ccc(CC(=O)c2ccc(O)cc2O)o1 [Compound 9] |  |  | 42.9 |  | 42.4 | less than 40% | Pam2CSK4-induced TLR2/6 response (remaining) (TLR2/6): less than 50% |
| CCOC(=O)c1cccc(NC(=O)c2ccc(O)cc2O)c1 [Compound 1, Ethyl 3‐(2,4‐dihydroxy‐benzamido)benzoate] | Except for 1, all selected compounds decreased | Except for 1, all selected compounds decreased |  |  |  |  |  |
| CCOC(=O)c1cccc(NC(=O)c2ccc(O)c(O)c2O)c1 [Compound 7, ethyl 3‐(2,3,4‐trihydroxy‐benzamido)benzoate] |  |  |  | instantaneous decomposition |  |  |  |
| CCOC(=O)c1cccc(NC(=O)c2cc(O)c(O)c(O)c2)c1 [Compound 8, ethyl 3‐(3,4,5‐trihydroxy‐benzamido)benzoate] |  |  |  | instantaneous decomposition |  |  |  |
